Reference: US10674723B2, “1,8-bis(Schiff base)-p-menthane derivatives as well as preparation method and applications thereof” (INSTITUTE OF CHEMICAL INDUSTRY OF FOREST PRODUCTS, CAF, priority 2016, dated 2020)

Tested on: annual ryegrass
Experiment: Pre-emergence herbicidal activity by the Petri dish seed germination method
Format: in vivo
Settings: 25° C., 5 days
Experimental: Step 2: accurately weigh 1 mmol of the 1,8-bis(Schiff base)-p-menthane derivative and dissolve it in 0.25 mL DMF, and then add a drop of Tween 80 into it; after the product is fully dissolved, the resulting solution is transferred to a 100 mL volumetric flask and is diluted with distilled water to the mark to obtain a solution having a concentration of 10 mmol/L as the mother liquor. Using the two-fold dilution method, a series of diluted sample solutions with different concentrations are prepared with the mother liquor (the concentrations of DMF and Tween 80 in the diluted solutions should be consistent with those in the mother liquor).
The annual ryegrass seeds are soaked with distilled water for 15 h. Place a piece of filter paper on the bottom of a Petri dish (φ9 cm), add 10 mL of the above sample solution having the corresponding concentration into it, respectively, and add the same amount of the mixture of water, DMF and Tween 80 into such a Petri dish as a blank control. Place 10 grains of seeds into each dish. The dishes are then placed in an incubator and cultured at 25° C. for 5 days. The experimental data are analyzed with DPS software, and the inhibition rate of the 1,8-bis(Schiff base)-p-menthane derivative on the root or stem growth of ryegrass seeds is calculated as follows:
[formula] Where: y is the inhibition rate on the root or stem growth, x2 is the root length or stem length of the control sample, and x1 is the root length or stem length of the sample.
1 mmol of the 1,8-bis(2-hydroxyphenylimine)-p-menthane was accurately weighed and dissolved in 0.25 mL DMF; a drop of Tween 80 was then added into it; after the product was fully dissolved, the resulting solution was transferred to a 100 mL volumetric flask and was diluted with distilled water to the mark to obtain a solution having a concentration of 10 mmol/L as the mother liquor. Using the two-fold dilution method, a series of diluted sample solutions with different concentrations (5 mmol/L, 2.5 mmol/L, 1.25 mmol/L, 0.625 mmol/L and 0.3125 mmol/L; the concentrations of DMF and Tween 80 in the diluted solutions should be consistent with those in the mother liquor) were prepared with the mother liquor.
The annual ryegrass seeds were soaked with distilled water for 15 h. Placed a piece of filter paper on the bottom of a Petri dish (φ 9 cm), added 10 mL of the above sample solution having the corresponding concentration into it, respectively, and added the same amount of the mixture of water, DMF and Tween 80 into such a Petri dish as a blank control. 10 grains of seeds were placed into each of the dishes. The dishes were then placed in an incubator and cultured at 25° C. for 5 days.

## 1,8-bis(2-hydroxyphenylimine)-p-menthane
0.3125 mmol/L solution
  inhibition rate on the root growth of ryegrass seeds: 14.3%
  inhibition rate on the stem growth of ryegrass seeds: 6.9%
0.625 mmol/L solution
  inhibition rate on the root growth of ryegrass seeds: 41.4%
  inhibition rate on the stem growth of ryegrass seeds: 38.0%
1.25 mmol/L solution
  inhibition rate on the root growth of ryegrass seeds: 62.2%
  inhibition rate on the stem growth of ryegrass seeds: 61.7%
2.5 mmol/L solution
  inhibition rate on the root growth of ryegrass seeds: 83.3%
  inhibition rate on the stem growth of ryegrass seeds: 79.5%
5 mmol/L solution
  inhibition rate on the root growth of ryegrass seeds: 100.0%
  inhibition rate on the stem growth of ryegrass seeds: 100.0%
10 mmol/L solution
  inhibition rate on the root growth of ryegrass seeds: 100.0%
  inhibition rate on the stem growth of ryegrass seeds: 100.0%

## 1,8-bis(p-methylthiophenylimine)-p-menthane
0.3125 mmol/L solution
  inhibition rate on the root growth of ryegrass seeds: 37.7%
  inhibition rate on the stem growth of ryegrass seeds: 20.8%
0.625 mmol/L solution
  inhibition rate on the root growth of ryegrass seeds: 46.4%
  inhibition rate on the stem growth of ryegrass seeds: 28.7%
1.25 mmol/L solution
  inhibition rate on the root growth of ryegrass seeds: 35.4%
  inhibition rate on the stem growth of ryegrass seeds: 27.1%
2.5 mmol/L solution
  inhibition rate on the root growth of ryegrass seeds: 54.8%
  inhibition rate on the stem growth of ryegrass seeds: 28.0%
5 mmol/L solution
  inhibition rate on the root growth of ryegrass seeds: 50.3%
  inhibition rate on the stem growth of ryegrass seeds: 21.9%
10 mmol/L solution
  inhibition rate on the root growth of ryegrass seeds: 67.8%
  inhibition rate on the stem growth of ryegrass seeds: 36.7%

## 1,8-bis(4-fluorophenylimine)-p-menthane
0.3125 mmol/L solution
  inhibition rate on the root growth of ryegrass seeds: 14.0%
  inhibition rate on the stem growth of ryegrass seeds: 4.5%
0.625 mmol/L solution
  inhibition rate on the root growth of ryegrass seeds: 35.0%
  inhibition rate on the stem growth of ryegrass seeds: 21.6%
1.25 mmol/L solution
  inhibition rate on the root growth of ryegrass seeds: 58.0%
  inhibition rate on the stem growth of ryegrass seeds: 49.9%
2.5 mmol/L solution
  inhibition rate on the root growth of ryegrass seeds: 78.0%
  inhibition rate on the stem growth of ryegrass seeds: 53.8%
5 mmol/L solution
  inhibition rate on the root growth of ryegrass seeds: 85.5%
  inhibition rate on the stem growth of ryegrass seeds: 82.5%
10 mmol/L solution
  inhibition rate on the root growth of ryegrass seeds: 94.9%
  inhibition rate on the stem growth of ryegrass seeds: 94.9%

## CC1(N=Cc2c(Cl)cccc2Cl)CCC(C(C)(C)N=Cc2c(Cl)cccc2Cl)CC1 (stereo not drawn) [1,8-bis(2,6-dichlorophenylimine)-p-menthane]
0.3125 mmol/L solution
  inhibition rate on the root growth of ryegrass seeds: 100.0%
  inhibition rate on the stem growth of ryegrass seeds: 100.0%
0.625 mmol/L solution
  inhibition rate on the root growth of ryegrass seeds: 100.0%
  inhibition rate on the stem growth of ryegrass seeds: 100.0%
1.25 mmol/L solution
  inhibition rate on the root growth of ryegrass seeds: 100.0%
  inhibition rate on the stem growth of ryegrass seeds: 100.0%
2.5 mmol/L solution
  inhibition rate on the root growth of ryegrass seeds: 100.0%
  inhibition rate on the stem growth of ryegrass seeds: 100.0%
5 mmol/L solution
  inhibition rate on the root growth of ryegrass seeds: 100.0%
  inhibition rate on the stem growth of ryegrass seeds: 100.0%
10 mmol/L solution
  inhibition rate on the root growth of ryegrass seeds: 100.0%
  inhibition rate on the stem growth of ryegrass seeds: 100.0%

## 1,8-bis(4-methoxyphenylimine)-p-menthane
0.3125 mmol/L solution
  inhibition rate on the root growth of ryegrass seeds: 12.5%
  inhibition rate on the stem growth of ryegrass seeds: 30.6%
0.625 mmol/L solution
  inhibition rate on the root growth of ryegrass seeds: 15.5%
  inhibition rate on the stem growth of ryegrass seeds: 32.2%
1.25 mmol/L solution
  inhibition rate on the root growth of ryegrass seeds: 54.3%
  inhibition rate on the stem growth of ryegrass seeds: 48.2%
2.5 mmol/L solution
  inhibition rate on the root growth of ryegrass seeds: 88.3%
  inhibition rate on the stem growth of ryegrass seeds: 73.9%
5 mmol/L solution
  inhibition rate on the root growth of ryegrass seeds: 100.0%
  inhibition rate on the stem growth of ryegrass seeds: 100.0%
10 mmol/L solution
  inhibition rate on the root growth of ryegrass seeds: 100.0%
  inhibition rate on the stem growth of ryegrass seeds: 100.0%

## 1,8-bis(4-methylphenylimine)-p-menthane
0.3125 mmol/L solution
  inhibition rate on the root growth of ryegrass seeds: 20.3%
  inhibition rate on the stem growth of ryegrass seeds: 11.1%
0.625 mmol/L solution
  inhibition rate on the root growth of ryegrass seeds: 26.3%
  inhibition rate on the stem growth of ryegrass seeds: 25.9%
1.25 mmol/L solution
  inhibition rate on the root growth of ryegrass seeds: 34.2%
  inhibition rate on the stem growth of ryegrass seeds: 26.8%
2.5 mmol/L solution
  inhibition rate on the root growth of ryegrass seeds: 67.0%
  inhibition rate on the stem growth of ryegrass seeds: 46.2%
5 mmol/L solution
  inhibition rate on the root growth of ryegrass seeds: 92.8%
  inhibition rate on the stem growth of ryegrass seeds: 90.4%
10 mmol/L solution
  inhibition rate on the root growth of ryegrass seeds: 100.0%
  inhibition rate on the stem growth of ryegrass seeds: 100.0%

## 1,8-bis(p-dimethylaminophenylimine)-p-menthane
0.3125 mmol/L solution
  inhibition rate on the root growth of ryegrass seeds: 100.0%
  inhibition rate on the stem growth of ryegrass seeds: 96.8%
0.625 mmol/L solution
  inhibition rate on the root growth of ryegrass seeds: 100.0%
  inhibition rate on the stem growth of ryegrass seeds: 100.0%
1.25 mmol/L solution
  inhibition rate on the root growth of ryegrass seeds: 100.0%
  inhibition rate on the stem growth of ryegrass seeds: 100.0%
2.5 mmol/L solution
  inhibition rate on the root growth of ryegrass seeds: 100.0%
  inhibition rate on the stem growth of ryegrass seeds: 100.0%
5 mmol/L solution
  inhibition rate on the root growth of ryegrass seeds: 100.0%
  inhibition rate on the stem growth of ryegrass seeds: 100.0%
10 mmol/L solution
  inhibition rate on the root growth of ryegrass seeds: 100.0%
  inhibition rate on the stem growth of ryegrass seeds: 100.0%

## 1,8-bis(4-bromophenylimine)-p-menthane
0.3125 mmol/L solution
  inhibition rate on the root growth of ryegrass seeds: 71.0%
  inhibition rate on the stem growth of ryegrass seeds: 64.8%
0.625 mmol/L solution
  inhibition rate on the root growth of ryegrass seeds: 88.0%
  inhibition rate on the stem growth of ryegrass seeds: 79.5%
1.25 mmol/L solution
  inhibition rate on the root growth of ryegrass seeds: 100.0%
  inhibition rate on the stem growth of ryegrass seeds: 100.0%
2.5 mmol/L solution
  inhibition rate on the root growth of ryegrass seeds: 100.0%
  inhibition rate on the stem growth of ryegrass seeds: 100.0%
5 mmol/L solution
  inhibition rate on the root growth of ryegrass seeds: 100.0%
  inhibition rate on the stem growth of ryegrass seeds: 100.0%
10 mmol/L solution
  inhibition rate on the root growth of ryegrass seeds: 100.0%
  inhibition rate on the stem growth of ryegrass seeds: 100.0%

## 1,8-bis(4-chlorophenylimine)-p-menthane
0.3125 mmol/L solution
  inhibition rate on the root growth of ryegrass seeds: 94.1%
  inhibition rate on the stem growth of ryegrass seeds: 75.2%
0.625 mmol/L solution
  inhibition rate on the root growth of ryegrass seeds: 98.0%
  inhibition rate on the stem growth of ryegrass seeds: 90.3%
1.25 mmol/L solution
  inhibition rate on the root growth of ryegrass seeds: 99.3%
  inhibition rate on the stem growth of ryegrass seeds: 91.4%
2.5 mmol/L solution
  inhibition rate on the root growth of ryegrass seeds: 100.0%
  inhibition rate on the stem growth of ryegrass seeds: 98.2%
5 mmol/L solution
  inhibition rate on the root growth of ryegrass seeds: 100.0%
  inhibition rate on the stem growth of ryegrass seeds: 100.0%
10 mmol/L solution
  inhibition rate on the root growth of ryegrass seeds: 100.0%
  inhibition rate on the stem growth of ryegrass seeds: 100.0%

## 1,8-bis(p-trifluoromethylphenylimine)-p-menthane
0.3125 mmol/L solution
  inhibition rate on the root growth of ryegrass seeds: 35.4%
  inhibition rate on the stem growth of ryegrass seeds: 1.1%
0.625 mmol/L solution
  inhibition rate on the root growth of ryegrass seeds: 45.5%
  inhibition rate on the stem growth of ryegrass seeds: 2.4%
1.25 mmol/L solution
  inhibition rate on the root growth of ryegrass seeds: 65.8%
  inhibition rate on the stem growth of ryegrass seeds: 26.0%
2.5 mmol/L solution
  inhibition rate on the root growth of ryegrass seeds: 87.5%
  inhibition rate on the stem growth of ryegrass seeds: 53.7%
5 mmol/L solution
  inhibition rate on the root growth of ryegrass seeds: 81.7%
  inhibition rate on the stem growth of ryegrass seeds: 34.8%
10 mmol/L solution
  inhibition rate on the root growth of ryegrass seeds: 93.8%
  inhibition rate on the stem growth of ryegrass seeds: 87.9%

## 1,8-bis(2-trifluoromethylphenylimine)-p-menthane
0.3125 mmol/L solution
  inhibition rate on the root growth of ryegrass seeds: 79.2%
  inhibition rate on the stem growth of ryegrass seeds: 56.3%
0.625 mmol/L solution
  inhibition rate on the root growth of ryegrass seeds: 86.2%
  inhibition rate on the stem growth of ryegrass seeds: 56.3%
1.25 mmol/L solution
  inhibition rate on the root growth of ryegrass seeds: 99.7%
  inhibition rate on the stem growth of ryegrass seeds: 88.2%
2.5 mmol/L solution
  inhibition rate on the root growth of ryegrass seeds: 100.0%
  inhibition rate on the stem growth of ryegrass seeds: 100.0%
5 mmol/L solution
  inhibition rate on the root growth of ryegrass seeds: 100.0%
  inhibition rate on the stem growth of ryegrass seeds: 100.0%
10 mmol/L solution
  inhibition rate on the root growth of ryegrass seeds: 100.0%
  inhibition rate on the stem growth of ryegrass seeds: 100.0%
